Experimental data reported in patent publication US10653670B2, “Use of indole compounds for fat reduction and skin and soft tissue tightening” (Alevere Medical Corporation, priority 2013, dated 2020).
Entries after “also recorded” stand apart in the source; their conditions may differ.

Assays:
[1] = recent reports following clinical trials; cited from earlier work
[2] = tested on: adipocytes over nerve cells, dermal cells, muscle cells, and endothelial cells; assay: LIVE/DEAD assay, tissue preference (adipocytes versus other cell types); format: cell-based, human; conditions: for tissue specificity / tissue preference: Example 2, FIGS. 5-8 and table, 2 and 5 hours in FIGS. 6-8
[3] = tested on: adipocytes; assay: Histology of injected immediate ex-vivo abdominoplasty tissue; format: cell-based, human
Method: As the indole group has not been previously used for intralesional fat reduction, a method of obtaining histologic specimens had to be modified.
The tissue model described herein, therefore, was immediate ex-vivo abdominoplasty tissue that had been permitted for use by the surgical patient. Segments of abdominal skin and subcutaneous fat were injected with identified test compounds, plus a negative saline control and three positive controls: 1% deoxycholate, the commercial preparation of Aqualyx®, and the Network Lipolysis PC/DC formula.
Because there was no host; inflammatory changes would not be expected. This study was only performed to assess the immediacy of adipocyte changes, and to determine the method of action of each compound.

[4] = tested on: fat pad (human fat graft); assay: Nude mouse study, injection into engrafted human fat pad; format: in vivo
Method: This example reports exemplary compounds reported in Example 1. A mouse study was performed to test compounds of the embodiments. Eight test compounds were injected. In addition to normal saline and compound diluent (DMSO plus excipients) (negative controls), positive controls included 1% sodium deoxycholate (DC, MasterPharm, Richmond Hill, N.Y.), phosphatidylcholine 25 mg/ml plus deoxycholate 12 mg/ml (PC/DC, PC25/DC 12, MasterPharm, Richmond Hill, N.Y.), and Aqualyx®, a sodium deoxycholate in a lactose carrier (Marllor International, Italy).
Seventy nude mice were chosen for a study of safety and efficacy of injectable lipolytic compounds. Human fat was harvested one hour prior to the injection procedure. 0.5 cc of fat was loaded into micro syringes. Engraftment took place under general anesthesia. Four weeks later, the fat pad size was measured and compounds injected precisely using a 6 mm meso needle in the center and 0.5 cm cephalad and caudad to the midpoint. Mice were sacrificed at one day, one week, two weeks and 4 weeks. […]
Each fat pad was measured and weighed on the analytical balance at the time of sacrifice. […]
Size reduction after compound injection was measured against the measurement taken just previous to injection of compounds. […] Compound dose was calculated based on the average weight of each mouse and was based on the maximum safe dose of PC/DC. […]

[5] = tested on: dermal fibroblasts; format: cell-based; conditions: for Dermis, averaged ethidium numbers: kill rate (ethidium), same plate as adipocytes; for Dermis, relative kill rate rated against the adipocyte kill rate: percentage in brackets
Method: (§1) The time and concentration dependent effects of drug substance on both cell viability and toxicity were evaluated using a two-color fluorescence assay that measures plasma membrane integrity and intracellular enzyme activity. Live cells are determined by the strong fluorescence of calcein AM upon enzymatic conversion. […] The ratio of ethidium to calcein fluorescence is an excellent measure of the relative amount of live and dead cells.
(§2) Initial screening was performed using a variety of cell viability and cytotoxicity assays, including Presto Blue® (Invitrogen, Grand Island, N.Y.), Alamar Blue® (Invitrogen, Grand Island, N.Y.), Cyto-Tox One® (Promega, Madison, Wis.), and Cell Titer Glo® (Promega, Madison, Wis.). […] An MTT terazolium assay was performed, as well as LDH and ATP based assays. […] The LIVE/DEAD® for mammalian cells assay was used. LIVE/DEAD® for mammalian cells assay is a calcein (live read)/ethidium bromide (dead) multiplex assay.
(§3) A sample of DMSO/PBS was a negative control. A sample of Aqualyx® was a positive control. In the table, 24M is phosphatidylcholine 25 mg/ml plus deoxycholate 12 mg/and 25N is C 50/DC24; these were positive controls. The numbers in the table refer to averaged ethidium numbers. The percentages represent the relative kill rate for each cell type when rated against the adipocyte kill rate for that compound. All tissue types were tested on the same plate against adipocytes in order to standardize results.
(§4) Over seventy compounds of the embodiments were tested for adipocytolysis, then for tissue preference. A consistent assay with multiplex information was a calcein/ethidium bromide assay that assesses cell viability and cell death simultaneously. Cell viability was checked using the Countess device. All plates were inoculated with 100 microliters of the appropriate cell types. A 6 well repeat was used to verify results. Cell types used included cultured human adult derived adipocytes, dermal fibroblasts, skeletal muscle cells, and endothelial cells (Cell Applications, Inc., San Diego, Calif.). Human peripheral nerve cells (Innoprot, Spain) were also used.
(§5) Compounds were formulated using a DMSO/PBS excipient. A 10 mg/ml concentration was used. One hundred microliters of test compound was inserted into 6 wells of 5 cell types, placed in adjacent rows. The plates were incubated for 4 hours. Indicator was added to each well, and plates were read at 45 minutes using a fluorescence spectrophotometer (Molecular Devices, Sunnyvale, Calif.).

[6] = tested on: nerve cells; format: cell-based; conditions: for Nerve, averaged ethidium numbers: kill rate (ethidium), same plate as adipocytes; for Nerve, relative kill rate rated against the adipocyte kill rate: percentage in brackets
Method: as §1, §2, §3, §4, §5

[7] = tested on: adipocytes; assay: LIVE/DEAD calcein/ethidium bromide assay, adipocyte kill rate; format: cell-based, human; conditions: for adipocyte kill rate / aggressiveness: Example 2, FIGS. 5-8 and table; for Adipocyte, averaged ethidium numbers: kill rate (ethidium), all tissue types on the same plate
Method: as §1, §2, §3, §4, §5

[8] = tested on: endothelial cells; assay: LIVE/DEAD calcein/ethidium bromide assay, endothelial cell kill rate; format: cell-based, human; conditions: for Endothelial, averaged ethidium numbers: kill rate (ethidium), same plate as adipocytes; for Endothelial, relative kill rate rated against the adipocyte kill rate: percentage in brackets
Method: as §1, §2, §3, §4, §5

[9] = tested on: skeletal muscle cells; assay: LIVE/DEAD calcein/ethidium bromide assay, muscle cell kill rate; format: cell-based, human; conditions: for Muscle, averaged ethidium numbers: kill rate (ethidium), same plate as adipocytes; for Muscle, relative kill rate rated against the adipocyte kill rate: percentage in brackets
Method: as §1, §2, §3, §4, §5

Row | SMILES | tissue specificity / tissue preference [2] | histology finding / mechanism of action ([3]; at 4 hours) | Dermis, averaged ethidium numbers [5] | Dermis, relative kill rate rated against the adipocyte kill rate [5] [%] | Nerve, averaged ethidium numbers [6] | Nerve, relative kill rate rated against the adipocyte kill rate [6] [%] | adipocyte kill rate / aggressiveness [7] | Adipocyte, averaged ethidium numbers [7] | Endothelial, averaged ethidium numbers [8] | Endothelial, relative kill rate rated against the adipocyte kill rate [8] [%] | Muscle, averaged ethidium numbers [9] | Muscle, relative kill rate rated against the adipocyte kill rate [9] [%] | histology finding / mechanism of action ([3]; at 12 hours) | also measured
1 | C[C@H](CCC(=O)[O-])[C@H]1CC[C@H]2[C@@H]3CC[C@@H]4C[C@H](O)CC[C@]4(C)[C@H]3C[C@H](O)[C@]12C.[Na+] [1% deoxycholate, sodium deoxycholate] | indiscriminate | Cell wall lysis |  |  |  |  |  |  |  |  |  |  |  | instances of facial nerve palsy [1]: two; numbness with paresthesias, patients treated [1]: up to 40%; gross effect on fat pad graft ([4]; four weeks after injection): Visible and measurable fat reduction; gross effect on fat pad graft ([4]; one day after injection): Immediate necrosis
2 | c1ccc2[nH]ccc2c1 [Compound 33, 1H-indole] | moderate tissue specificity | pyroptotic activity | 17 | 53 | 17 | 53 | fairly low adipocyte kill rate | 32 | 18 | 56 | 18 | 56 |  | ethidium results for dermis, muscle and endothelial cells compared with adipocytes ([2]; 4 time points over 24 hours): less than half toxic; tissue preference ([2]; Example 5, FIG. 12, 10 mg/ml, 4 hours incubation): about 50%
3 | O=Cc1cc2ccccc2[nH]1 [Compound 2, 1H-indole-2-carbaldehyde] | most strongly tissue preferential; also recorded: high specificity |  | 101 | 28 | 124 | 39 | aggressive; also recorded: most aggressive | 360 | 116 | 32 | 93 | 26 |  | histology finding / mechanism of action ([3]; at 1 hour): more cytolysis than apoptosis
4 | O=C(O)Cc1c[nH]c2ccc(Br)cc12 [Compound 41, 2-(5-bromo-1H-indol-3-yl) acetic acid] | most strongly tissue preferential; also recorded: high tissue preference index |  | 27 | 18 | 32 | 20 | moderate; also recorded: strong adipocytolytic capability | 149 | 44 | 30 | 40 | 27 | Pyroptotic mechanism | 
5 | Brc1ccc2[nH]ccc2c1 [Compound 38, 5-bromo-1H-indole] | moderate preference | primarily cytolysis | 148 | 27 | 551 | 99 | aggressive adipocyte killer | 558 | 289 | 50 | 362 | 65 |  | toxicity to dermis / dermal fibroblasts ([5]; Example 2, FIGS. 6-8): not nearly as toxic; toxicity to nerve cells ([6]; Example 2, FIGS. 6-8): toxic to nerve cells
6 | O=C(O)c1cc2ccccc2[nH]1 [Compound 29, 1H-indole-2-carboxylic acid] | most strongly tissue preferential; also recorded: strongly adipocyte preferential |  | 9 | 11 | 15 | 18 | less aggressive; also recorded: equivalent to that of Compounds D and E | 83 | 8.5 | 10 | 14 | 17 | primarily an apoptotic mechanism | 
